Measured values as given in patent publication US20250144230A1, “LINKERS FOR USE IN ANTIBODY DRUG CONJUGATES” (Orum Therapeutics, Inc., priority 2021, published 2025).

What was measured:
CD79b [1] = target: T1, CD79b (Homo sapiens, UniProt P40259); test: Binding of conjugate and parent antibody to cancer cells (flow cytometry), CD79b / Ramos; conditions: 1 hour at 4° C.; conjugate at DARs 2.0, 3.2 and 4.6
T1 construct: endogenous in cells; host or cells: Ramos
T1 sequence (P40259 29-229): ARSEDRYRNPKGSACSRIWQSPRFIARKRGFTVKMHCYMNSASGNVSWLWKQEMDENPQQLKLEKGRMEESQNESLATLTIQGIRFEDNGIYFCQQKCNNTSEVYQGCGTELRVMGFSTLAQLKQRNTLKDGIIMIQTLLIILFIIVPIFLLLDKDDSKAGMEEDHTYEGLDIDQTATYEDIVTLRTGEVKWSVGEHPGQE
T1 sequence (P11912 33-226 partner): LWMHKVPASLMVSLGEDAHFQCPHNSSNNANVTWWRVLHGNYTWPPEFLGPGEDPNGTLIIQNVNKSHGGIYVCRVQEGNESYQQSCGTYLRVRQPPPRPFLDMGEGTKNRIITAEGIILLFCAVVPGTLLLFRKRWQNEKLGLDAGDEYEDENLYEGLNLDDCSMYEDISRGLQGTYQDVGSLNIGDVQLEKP

[2] = tested on: MV-4-11 human acute myeloid leukemia cells; test: In vivo MV-4-11 subcutaneous myeloid leukemia tumor model; set-up: species or system Athymic Nude mice
Procedure: Subcutaneous tumor model—MV-4-11 human acute myeloid leukemia cells (1×10^7 cells in 0.1 mL) were subcutaneously inoculated into the right flank of female Athymic Nude mice. Mice were treated with each test article when the tumor size reached 100-150 mm^3. 10 mg/kg of CD33-D antibody-Compound (XL) conjugate (in 20 mM succinate, 8% sucrose, 0.01% Tween-20 pH 5.5) was delivered by intravenous administration (IV) once a week for 2 weeks. 0.4 mg/kg of Compound (XL) (in 5% NMP, 45% PEG300, 20 mM NaPi pH 6.5) and 10 mg/kg of ARV-825 (as described in Liu, et al. Chemistry & Biology 2015, volume 22, pages 755-763) in 1.5 mg/mL, 5% Kolliphor, HS15 WFI Buffer was treated by intraperitoneal administration (IP) once a day for 14 days. Tumor size and mouse body weight were measured twice per week. Subcutaneous tumor volume (mm^3) was calculated with the following formula: (a×b^2/2) where ‘b’ is the smallest diameter and ‘a’ is the largest diameter. The study endpoint is that individual mice were euthanized following respective tumor volume ≥1,000 mm^3 or day 60, whichever came first.

β-glucuronidase = target: T2, β-glucuronidase (Escherichia coli, UniProt P05804); test: β-Glucuronidase digestion, in vitro payload release; format: biochemical
T2 construct: purchased Sigma Type IX-A
T2 sequence (P05804 whole entry): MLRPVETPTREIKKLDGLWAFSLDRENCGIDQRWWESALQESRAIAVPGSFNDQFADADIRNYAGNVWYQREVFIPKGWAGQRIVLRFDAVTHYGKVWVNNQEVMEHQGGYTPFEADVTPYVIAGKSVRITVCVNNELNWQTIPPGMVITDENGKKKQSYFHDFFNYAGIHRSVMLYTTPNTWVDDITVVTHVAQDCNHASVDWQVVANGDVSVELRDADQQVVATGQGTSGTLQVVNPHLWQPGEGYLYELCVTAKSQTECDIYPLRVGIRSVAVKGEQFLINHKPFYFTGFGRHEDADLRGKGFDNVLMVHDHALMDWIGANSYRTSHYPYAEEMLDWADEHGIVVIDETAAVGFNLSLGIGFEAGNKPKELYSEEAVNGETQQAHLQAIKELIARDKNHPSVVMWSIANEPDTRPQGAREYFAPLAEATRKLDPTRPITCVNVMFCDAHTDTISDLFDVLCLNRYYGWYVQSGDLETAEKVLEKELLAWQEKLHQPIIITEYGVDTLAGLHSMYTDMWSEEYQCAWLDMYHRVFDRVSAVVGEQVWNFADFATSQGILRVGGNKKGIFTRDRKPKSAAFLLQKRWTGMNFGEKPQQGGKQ
Procedure: 10 μM Compound (XLI) was incubated with β-glucuronidase (Sigma, Type IX-A; 1 mg/mL solution in PBS, […]) and the reaction mixture was incubated at 37° C. for 3 hours with gentle shaking. The digests were extracted with 5 volumes of ice-cold acetonitrile and dried down, followed by reconstitution in 95:5:0.1 water:acetonitrile:formic acid. The samples were submitted for LC-MS analysis (Thermo Exploris 240) and using the appropriate reference standards, the released payload and/or incompletely cleaved linker byproducts were identified and quantified.

BRD4 = target: T3, BRD4 (Homo sapiens, UniProt O60885); test: In vitro BRD4 protein degradation assay (Western blot); format: cell-based; conditions: 10 nM, MV4-11 cells, overnight
T3 construct: endogenous in cells; host or cells: MV4-11
Procedure: The ability of the claimed conjugates to degrade BRD4 was measured using an in vitro degradation assay. MV4-11 cells were incubated with test article overnight. Protein was loaded to 4-12% NuPAGE Bis-Tris gel. Western blot with rabbit anti-BRD4 Ab (Cell Signaling #13440) was performed at 1:1,000 dilution and re-blotting with β-actin HRP (Cell Signaling #5125) was performed at 1:1,000. The degradation activity of the gemtuzumab conjugate Compound (XL) and the unconjuaged BRD4 degrader small molecule Compound 40-3 are shown in FIG. 14.

MV-4-11 cells = test: In vitro MV-4-11 antiproliferation assay (alamarBlue); format: cell-based, human; conditions: 4 days, test article alone
Procedure: MV-4-11 cells were exposed to varying concentrations of conjugates or antibodies for 4 days with/without 1 μM of the blocking antibody Gemtuzumab or Trastuzumab. Viability of the cells was determined by alamarBlue. The antiproliferative activity of the gemtuzumab conjugate of Compound (XL) and the unconjuaged BRD4 degrader small molecule Compound 40-3 are showin in FIG. 13. […] The antibodies alone were not active up to […].

CD79b [3] = target: T4, CD79b (UniProt P40259 29-229, limits assumed); test: flow cytometry binding to Ramos cells (procedure of Example 10)
T4 construct: whole, on cells; Endogenous antigen on the cell line
T4 sequence (looked up): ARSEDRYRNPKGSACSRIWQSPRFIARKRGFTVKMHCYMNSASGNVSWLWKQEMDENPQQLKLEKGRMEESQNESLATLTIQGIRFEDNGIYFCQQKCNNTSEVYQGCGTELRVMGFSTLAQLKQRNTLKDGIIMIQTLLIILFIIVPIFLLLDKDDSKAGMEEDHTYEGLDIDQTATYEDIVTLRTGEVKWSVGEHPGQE

Molecule: Synagis N297A: non-binding control antibody
- CD79b binding on Ramos cells by flow cytometry (in words) (CD79b [1]): relatively negligible signal intensity

Molecule: Cc1sc2c(c1C)C(c1ccc(Cl)cc1)=N[C@@H](CC(=O)Nc1ccc(OCCOCCOCCOCCNc3cccc4c3C(=O)N(C3CCC(=O)NC3=O)C4=O)cc1)c1nnc(C)n1-2 (some centres unmarked) [ARV-825]
- effect on MV-4-11 tumor growth ([2]; 10 mg/kg IP once a day for 14 days): inactive

Molecule: CNCCOCCc1ccc(NC(=O)NCc2ccc3c(c2)CN(C2CCC(=O)N(CN(C)C(=O)OCc4ccc(O[C@@H]5O[C@H](C(=O)O)[C@@H](O)[C@H](O)[C@H]5O)c(NC(=O)CCNC(=O)CCN5C(=O)C=CC5=O)c4)C2=O)C3=O)cc1Cl (stereo partly drawn) [Compound (XLI), (2S,3S,4S,5R,6S)-6-[4-({[({3-[5-({[(3-chloro-4-{2-[2-(methylamino)ethoxy]ethyl}phenyl)carbamoyl]amino}methyl)-1-oxo-3H-isoindol-2-yl]-2,6-dioxopiperidin-1-yl}methyl)(methyl)carbamoyl]oxy}methyl)-2-{3-[3-(2,5-dioxopyrrol-1-yl)propanamido]propanamido}phenoxy]-3,4,5-trihydroxyoxane-2-carboxylic acid]
- % Payload Released (β-glucuronidase; 10 μM compound, β-glucuronidase, 37° C., 3 hours): 90.9%
- yield of desired payload released by β-glucuronidase (in words) (β-glucuronidase; β-glucuronidase treatment): excellent yield

Molecule: Cn1cc(-c2cc(NC(=O)CCCCC(=O)NCCCCNc3cccc4c3C(=O)N(C3CCC(=O)NC3=O)C4=O)ccc2Oc2ccc(F)cc2F)c2cc[nH]c2c1=O (centres unmarked) [Compound 40-3, N′-[4-(2,4-difluorophenoxy)-3-{6-methyl-7-oxo-1H-pyrrolo[2,3-c]pyridin-4-yl}phenyl]-N-(4-{[2-(2,6-dioxopiperidin-3-yl)-1,3-dioxoisoindol-4-yl]amino}butyl)hexanediamide, reference compound]
- effect on MV-4-11 tumor growth ([2]; 0.4 mg/kg IP once a day for 14 days (equivalent to conjugated payload dose)): inactive
- reduction in BRD4 protein band intensity (BRD4): > 90%
- antiproliferative activity against MV-4-11 cells (in words) (MV-4-11 cells): highly active

B1: CD79b-A antibody (antibody, V domains shown)
VH: EVQLVESGGGLVQPGGSLRLSCAASGYTFSSYWIEWVRQAPGKGLEWIGEILPGGGDTNYNEIFKGRATFSADTSKNTAYLQMNSLRAEDTAVYYCTRRVPIRLDYWGQGTLVTVSS
VL: DIQLTQSPSSLSASVGDRVTITCKASQSVDYEGDSFLNWYQQKPGKAPKLLIYAASNLESGVPSRFSGSGSGTDFTLTISSLQPEDFATYYCQQSNEDPLTFGQGTKVEIK
notes: also called Polatuzumab
- EC50 (CD79b [3]): 0.74 nM
